Measurements as given in ChEMBL document CHEMBL1201862, “PubChem BioAssay data set” (2004).
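Dose response: 5 concentrations. Exposure: 48 h. Format: 96-well plates. Endpoint: linear interpolation; highest concentration if not reached. GI50 marks 50% less growth.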 The source made the active and inactive calls. Rule as the data show it: active = GI50 up to about 1.1 µM and inactive = higher.

Tests used:
Experiment in all cases: inhibition of tumour cell growth, NCI panel, 48 h
[1] = system: NCI/ADR-RES
[2] = system: NCI-H226
[3] = system: SK-MEL-2
[4] = system: PC-3
[5] = system: MDA-MB-435
[6] = system: SF-539
[7] = system: 786-0
[8] = system: EKVX
[9] = system: HCT-15
[10] = system: A549
[11] = system: SNB-75
[12] = system: OVCAR-3
[13] = system: COLO 205
[14] = system: NCI-H460
[15] = system: CCRF-CEM
[16] = system: TK-10
[17] = system: SF-295
[18] = system: IGROV-1
[19] = system: MDA-N
[20] = system: SR
[21] = system: HT-29
[22] = system: SF-268
[23] = system: SK-MEL-5
[24] = system: DU-145
[25] = system: OVCAR-5
[26] = system: LOX IMVI
[27] = system: NCI-H23
[28] = system: SW-620
[29] = system: MDA-MB-231
[30] = system: HCC 2998
[31] = system: A498
[32] = system: UO-31
[33] = system: CAKI-1
[34] = system: K562
[35] = system: HL-60
[36] = system: UACC-62
[37] = system: Malme-3M
[38] = system: MOLT-4
[39] = system: SK-MEL-28
[40] = system: HCT-116
[41] = system: RPMI-8226
[42] = system: OVCAR-4
[43] = system: SK-OV-3
[44] = system: OVCAR-8
[45] = system: SNB-19
[46] = system: M14
[47] = system: SN12C
[48] = system: T47D
[49] = system: MCF7
[50] = system: RXF 393
[51] = system: NCI-H522
[52] = system: ACHN
[53] = system: UACC-257
[54] = system: KM12
[55] = system: Hs-578T
[56] = system: HOP-62
[57] = system: U-251
[58] = system: HOP-92

Which results are given for `Cn1c(=O)oc2cc(Br)ccc21`?
GI50 [1]: > 100 µM (inactive); GI50 [2]: > 100 µM (inactive); GI50 [3]: > 100 µM (inactive); GI50 [4]: > 100 µM (inactive); GI50 [5]: > 100 µM (inactive); GI50 [6]: > 100 µM (inactive); GI50 [7]: > 100 µM (inactive); GI50 [8]: 91.4 µM (inactive); GI50 [9]: > 100 µM; GI50 [10]: > 100 µM (inactive); GI50 [11]: > 100 µM (inactive); GI50 [12]: > 100 µM (inactive); GI50 [13]: > 100 µM (inactive); GI50 [14]: > 100 µM (inactive); GI50 [15]: > 100 µM (inactive); GI50 [16]: > 100 µM (inactive); GI50 [17]: > 100 µM (inactive); GI50 [18]: > 100 µM (inactive); GI50 [19]: > 100 µM (inactive); GI50 [20]: > 100 µM (inactive); GI50 [21]: > 100 µM (inactive); GI50 [22]: > 100 µM (inactive); GI50 [23]: > 100 µM (inactive); GI50 [24]: > 100 µM (inactive); GI50 [25]: > 100 µM (inactive); GI50 [26]: > 100 µM (inactive); GI50 [27]: > 100 µM (inactive); GI50 [28]: > 100 µM (inactive); GI50 [29]: > 100 µM (inactive); GI50 [30]: > 100 µM (inactive); GI50 [31]: > 100 µM (inactive); GI50 [32]: > 100 µM (inactive); GI50 [33]: > 100 µM (inactive); GI50 [34]: > 100 µM (inactive); GI50 [35]: > 100 µM (inactive); GI50 [36]: > 100 µM (inactive); GI50 [37]: > 100 µM (inactive); GI50 [38]: > 100 µM (inactive); GI50 [39]: > 100 µM (inactive); GI50 [40]: > 100 µM (inactive); GI50 [41]: > 100 µM (inactive); GI50 [42]: > 100 µM (inactive); GI50 [43]: > 100 µM (inactive); GI50 [44]: > 100 µM (inactive); GI50 [45]: > 100 µM (inactive); GI50 [46]: > 100 µM (inactive); GI50 [47]: > 100 µM (inactive); GI50 [48]: > 100 µM (inactive); GI50 [49]: > 100 µM (inactive); GI50 [50]: > 100 µM (inactive); GI50 [51]: > 100 µM (inactive); GI50 [52]: > 100 µM (inactive); GI50 [53]: > 100 µM (inactive); GI50 [54]: > 100 µM (inactive); GI50 [55]: > 100 µM (inactive); GI50 [56]: > 100 µM (inactive)

`COc1ccc2c(c1)c[n+](C)c1c3cc(OC)c(OC)cc3ccc21` was tested. Which GI50 [1] did it give?
Its GI50 is > 100 µM (inactive).

And the GI50 [9]?
Its GI50 is 14 µM.

What about the GI50 [10] of the same compound?
Its GI50 is 1.54 µM (inactive).

And the GI50 [13]?
The GI50 was 1.67 µM (inactive).

What about the GI50 [19] of the same compound?
Its GI50 is 1.6 µM (inactive).

What about the GI50 [20] of the same compound?
The GI50 was 2.1 µM (inactive).

What about the GI50 [22] of the same compound?
The GI50 was 1.45 µM (inactive).

And the GI50 [26]?
Its GI50 is 1.32 µM (inactive).

What about the GI50 [28] of the same compound?
The GI50 was 1.37 µM (inactive).

What about the GI50 [57] of the same compound?
Its GI50 is 1.02 µM (active).

And the GI50 [29]?
The GI50 was 1.42 µM (inactive).

What about the GI50 [33] of the same compound?
Its GI50 is 11.9 µM (inactive).

What about the GI50 [44] of the same compound?
The GI50 was 1.22 µM (inactive).

What about the GI50 [45] of the same compound?
Its GI50 is 3.21 µM (inactive).

And the GI50 [47]?
Its GI50 is 1.73 µM (inactive).

And the GI50 [51]?
Its GI50 is 1.02 µM (active).

What about the GI50 [55] of the same compound?
Its GI50 is 2.05 µM (inactive).

With `CC(=O)Nc1c(C(=N)C#N)ncn1CCO` as the compound, how does the GI50 [1] read?
Its GI50 is > 100 µM (inactive).

What about the GI50 [2] of the same compound?
Its GI50 is > 100 µM (inactive).

And the GI50 [3]?
Its GI50 is > 100 µM (inactive).

And the GI50 [4]?
The GI50 was > 100 µM (inactive).

And the GI50 [5]?
The GI50 was > 100 µM (inactive).

And the GI50 [6]?
The GI50 was > 100 µM (inactive).

And the GI50 [7]?
Its GI50 is > 100 µM (inactive).

What about the GI50 [8] of the same compound?
Its GI50 is > 100 µM (inactive).

What about the GI50 [9] of the same compound?
The GI50 was > 100 µM.

What about the GI50 [10] of the same compound?
Its GI50 is > 100 µM (inactive).

What about the GI50 [11] of the same compound?
The GI50 was > 100 µM (inactive).

And the GI50 [12]?
Its GI50 is > 100 µM (inactive).

And the GI50 [13]?
Its GI50 is > 100 µM (inactive).

And the GI50 [14]?
Its GI50 is > 100 µM (inactive).

What about the GI50 [15] of the same compound?
Its GI50 is > 100 µM (inactive).

What about the GI50 [58] of the same compound?
The GI50 was > 100 µM (inactive).

What about the GI50 [16] of the same compound?
The GI50 was > 100 µM (inactive).

What about the GI50 [17] of the same compound?
Its GI50 is > 100 µM (inactive).

And the GI50 [18]?
Its GI50 is > 100 µM (inactive).

What about the GI50 [19] of the same compound?
The GI50 was > 100 µM (inactive).

What about the GI50 [21] of the same compound?
The GI50 was > 100 µM (inactive).

What about the GI50 [22] of the same compound?
The GI50 was > 100 µM (inactive).

What about the GI50 [23] of the same compound?
Its GI50 is > 100 µM (inactive).

What about the GI50 [24] of the same compound?
Its GI50 is > 100 µM (inactive).

And the GI50 [25]?
Its GI50 is > 100 µM (inactive).

And the GI50 [26]?
Its GI50 is > 100 µM (inactive).

What about the GI50 [27] of the same compound?
Its GI50 is > 100 µM (inactive).

And the GI50 [28]?
Its GI50 is > 100 µM (inactive).

And the GI50 [57]?
Its GI50 is > 100 µM (inactive).

What about the GI50 [29] of the same compound?
Its GI50 is > 100 µM (inactive).

And the GI50 [30]?
The GI50 was > 100 µM (inactive).

What about the GI50 [31] of the same compound?
The GI50 was > 100 µM (inactive).

What about the GI50 [33] of the same compound?
Its GI50 is > 100 µM (inactive).

And the GI50 [34]?
Its GI50 is > 100 µM (inactive).

What about the GI50 [36] of the same compound?
Its GI50 is > 100 µM (inactive).

What about the GI50 [37] of the same compound?
Its GI50 is > 100 µM (inactive).

What about the GI50 [39] of the same compound?
The GI50 was > 100 µM (inactive).

And the GI50 [40]?
Its GI50 is > 100 µM (inactive).

And the GI50 [41]?
The GI50 was > 100 µM (inactive).

What about the GI50 [42] of the same compound?
The GI50 was > 100 µM (inactive).

And the GI50 [43]?
The GI50 was > 100 µM (inactive).

What about the GI50 [44] of the same compound?
Its GI50 is > 100 µM (inactive).

What about the GI50 [45] of the same compound?
The GI50 was > 100 µM (inactive).

And the GI50 [46]?
Its GI50 is > 100 µM (inactive).

And the GI50 [47]?
Its GI50 is > 100 µM (inactive).

What about the GI50 [48] of the same compound?
The GI50 was > 100 µM (inactive).

And the GI50 [49]?
The GI50 was > 100 µM (inactive).

And the GI50 [50]?
Its GI50 is > 100 µM (inactive).

What about the GI50 [51] of the same compound?
The GI50 was > 100 µM (inactive).

What about the GI50 [52] of the same compound?
Its GI50 is > 100 µM (inactive).

And the GI50 [53]?
The GI50 was > 100 µM (inactive).

And the GI50 [54]?
The GI50 was > 100 µM (inactive).

What about the GI50 [55] of the same compound?
Its GI50 is > 100 µM (inactive).

And the GI50 [56]?
Its GI50 is > 100 µM (inactive).
